# In US20060069132A1, “Azolecarboxamide herbicides” (priority 2004, published 2006):
# Assays:
# Assay in all cases: Test E pre-/postemergence herbicide test
# tropical spiderwort = type: in vivo, Commelina benghalensis
# Source text: (§1) Seeds of plant species selected from bipinnate beggarticks (Bidens bipinnata L.), hairy beggarticks (Bidens radiata Thuill.), bermudagrass (Cynodon dactylon (L.) Pers.), Surinam grass (Urochloa decumbens (Staph) R. D. Webster, previously named Brachiaria decumbens Stapf), large crabgrass (Digitaria sanguinalis (L.) Scop.), green foxtail (Setaria viridis (L.) P. Beauv.), goosegrass (Eleusine indica (L.) Gaertn.), johnsongrass (Sorghum halepense (L.) Pers.), kochia (Kochia scoparia (L.) Schrad.), pitted morningglory (Ipomoea lacunosa L.), purple nutsedge (Cyperus rotundus L.), common ragweed (Ambrosia elatior L.), mustard (Brassica nigra (L.) W. D. J. Koch), guineagrass (Panicum maximum Jacq.), dallisgrass (Paspalum dilatatum Poir.), barnyardgrass (Echinochloa crus-galli (L). P. Beauv.), southern sandbur (Cenchrus echinatus L.), common sowthistle (Sonchus oleraceous L.), prickly sida (Sida spinosa L.), Italian ryegrass (Lolium multiflorum Lam.), common purslane (Portulaca oleracea L.), broadleaf signalgrass (Brachiaria platyphylla (Griseb.) Nash), common groundsel (Senecio vulgaris L.), common chickweed (Stellaria media (L.) Vill/Cyr.), tropical spiderwort (Commelina benghalensis L.), annual bluegrass (Poa annua L.), downy bromegrass (Bromus tectorum L.), itchgrass (Rottboellia cochinchinensis (L.) L.f.), quackgrass (Elytrigia repens (L.) Nevski), Canada horseweed (Erigeron Canadensis L.), field bindweed (Convolvulus arvensis L.), spotted spurge (Euphorbia maculata L.), common mallow (Malva sylvestris (=s silvestris) L.), and Russian thistle (Salsola kali L. ssp. Ruthenica (Iljin) Soo) were planted and treated preemergence with test chemicals formulated in a non-phytotoxic solvent mixture which included a surfactant.
# (§2) At the same time, plants selected from these weed species were treated with postemergence applications of some of the test chemicals formulated in the same manner. Plants ranged in height from 2 to 18 cm (1- to 4-leaf stage) for postemergence treatments. Treated plants and controls were maintained in a greenhouse for 12 to 14 days, after which time all species were compared to controls and visually evaluated. Plant response ratings, summarized in Table E, are based on a scale of 0 to 100 where 0 is no effect and 100 is complete control. A dash (-) response means no test result.
# prickly sida = type: in vivo, Sida spinosa
# Source text: as §1, §2
# common purslane = type: in vivo, Portulaca oleracea
# Source text: as §1, §2
# kochia = type: in vivo, Kochia scoparia; settings: Preemergence
# Source text: as §1, §2
# Italian ryegrass = type: in vivo, Lolium multiflorum
# Source text: as §1, §2
# southern sandbur = type: in vivo, Cenchrus echinatus
# Source text: as §1, §2
# purple nutsedge = type: in vivo, Cyperus rotundus
# Source text: as §1, §2
# large crabgrass = type: in vivo, Digitaria sanguinalis
# Source text: as §1, §2
# [1] = Postemergence, 250 g ai/ha, scale 0 to 100
# [2] = Preemergence, 500 g ai/ha, scale 0 (no effect) to 100 (complete control)
# [3] = postemergence, 125 g ai/ha, scale 0 to 100
# [4] = Postemergence, 500 g ai/ha, scale 0 to 100
# [5] = Preemergence, 62 g ai/ha, scale 0 to 100
# [6] = Preemergence, 125 g ai/ha, scale 0 to 100
# [7] = Preemergence, 250 g ai/ha, scale 0 (no effect) to 100 (complete control)
# [8] = postemergence, 62 g ai/ha, scale 0 to 100
# [9] = 250 g ai/ha, scale 0 (no effect) to 100 (complete control)
# [10] = 500 g ai/ha, scale 0 (no effect) to 100 (complete control)
compound,measurement,setting,value
"CCc1nn(C(C)(C)C)cc1C(=O)Nc1cc(C(=O)N(C)C)ccc1F [Compound 222, N-[5-[(dimethylamino)carbonyl]-2-fluorophenyl]-1-(1,1-dimethylethyl)-3-ethyl-1H-pyrazole-4-carboxamide]","Plant response rating, Spiderwort",tropical spiderwort; [1],60
same,"Plant response rating, Spiderwort",tropical spiderwort; [2],95
same,"Plant response rating, Spiderwort",tropical spiderwort; [3],40
same,"Plant response rating, Prickly Sida",prickly sida; [4],100
same,"Plant response rating, Prickly Sida",prickly sida; [1],100
same,"Plant response rating, Prickly Sida",prickly sida; [5],20
same,"Plant response rating, Prickly Sida",prickly sida; [6],70
same,"Plant response rating, Prickly Sida",prickly sida; [7],100
same,"Plant response rating, Prickly Sida",prickly sida; [2],100
same,"Plant response rating, Prickly Sida",prickly sida; [3],100
same,"Plant response rating, Prickly Sida",prickly sida; [8],90
same,"Plant response rating, Purslane",common purslane; [1],60
same,"Plant response rating, Purslane",common purslane; [5],70
same,"Plant response rating, Purslane",common purslane; [6],100
same,"Plant response rating, Purslane",common purslane; [7],100
same,"Plant response rating, Purslane",common purslane; [2],100
same,"Plant response rating, Purslane",common purslane; [3],30
same,"Plant response rating, Purslane",common purslane; [8],10
same,"Plant response rating, Kochia","kochia; 62 g ai/ha, scale 0 to 100",30
same,"Plant response rating, Kochia","kochia; 125 g ai/ha, scale 0 to 100",100
same,"Plant response rating, Kochia",kochia; [9],100
same,"Plant response rating, Kochia",kochia; [10],100
same,"Plant response rating, Ryegrass, Italian",Italian ryegrass; [4],85
same,"Plant response rating, Ryegrass, Italian",Italian ryegrass; [1],85
same,"Plant response rating, Ryegrass, Italian",Italian ryegrass; [5],50
same,"Plant response rating, Ryegrass, Italian",Italian ryegrass; [6],100
same,"Plant response rating, Ryegrass, Italian",Italian ryegrass; [7],100
same,"Plant response rating, Ryegrass, Italian",Italian ryegrass; [2],100
same,"Plant response rating, Ryegrass, Italian",Italian ryegrass; [3],80
same,"Plant response rating, Ryegrass, Italian",Italian ryegrass; [8],50
same,"Plant response rating, Sandbur",southern sandbur; [4],80
same,"Plant response rating, Sandbur",southern sandbur; [1],50
same,"Plant response rating, Sandbur",southern sandbur; [5],0
same,"Plant response rating, Sandbur",southern sandbur; [6],40
same,"Plant response rating, Sandbur",southern sandbur; [7],70
same,"Plant response rating, Sandbur",southern sandbur; [2],95
same,"Plant response rating, Sandbur",southern sandbur; [3],10
same,"Plant response rating, Sandbur",southern sandbur; [8],10
same,"Plant response rating, Nutsedge, Purple",purple nutsedge; [1],30
same,"Plant response rating, Nutsedge, Purple",purple nutsedge; [5],10
same,"Plant response rating, Nutsedge, Purple",purple nutsedge; [6],40
same,"Plant response rating, Nutsedge, Purple",purple nutsedge; [7],70
same,"Plant response rating, Nutsedge, Purple",purple nutsedge; [2],80
same,"Plant response rating, Nutsedge, Purple",purple nutsedge; [3],10
same,"Plant response rating, Nutsedge, Purple",purple nutsedge; [8],10
same,"Plant response rating, Crabgrass, Large",large crabgrass; [4],100
same,"Plant response rating, Crabgrass, Large",large crabgrass; [1],90
same,"Plant response rating, Crabgrass, Large",large crabgrass; [5],70
same,"Plant response rating, Crabgrass, Large",large crabgrass; [6],100
same,"Plant response rating, Crabgrass, Large",large crabgrass; [7],100
same,"Plant response rating, Crabgrass, Large",large crabgrass; [2],100
same,"Plant response rating, Crabgrass, Large",large crabgrass; [3],80
same,"Plant response rating, Crabgrass, Large",large crabgrass; [8],60
CCNC(=O)c1ccc(F)c(NC(=O)c2cn(C(C)(C)C)nc2CC)c1 [Compound 193],"Plant response rating, Spiderwort",tropical spiderwort; [4],70
same,"Plant response rating, Spiderwort",tropical spiderwort; [1],50
same,"Plant response rating, Spiderwort",tropical spiderwort; [6],80
same,"Plant response rating, Spiderwort",tropical spiderwort; [7],90
same,"Plant response rating, Spiderwort",tropical spiderwort; [2],95
same,"Plant response rating, Spiderwort",tropical spiderwort; [3],20
same,"Plant response rating, Prickly Sida",prickly sida; [4],95
same,"Plant response rating, Prickly Sida",prickly sida; [1],75
same,"Plant response rating, Prickly Sida",prickly sida; [5],20
same,"Plant response rating, Prickly Sida",prickly sida; [6],70
same,"Plant response rating, Prickly Sida",prickly sida; [7],70
same,"Plant response rating, Prickly Sida",prickly sida; [2],95
same,"Plant response rating, Prickly Sida",prickly sida; [3],60
same,"Plant response rating, Prickly Sida",prickly sida; [8],60
same,"Plant response rating, Purslane",common purslane; [4],85
same,"Plant response rating, Purslane",common purslane; [1],60
same,"Plant response rating, Purslane",common purslane; [6],60
same,"Plant response rating, Purslane",common purslane; [7],100
same,"Plant response rating, Purslane",common purslane; [2],100
same,"Plant response rating, Purslane",common purslane; [3],60
same,"Plant response rating, Purslane",common purslane; [8],20
same,"Plant response rating, Kochia","kochia; 62 g ai/ha, scale 0 to 100",100
same,"Plant response rating, Kochia","kochia; 125 g ai/ha, scale 0 to 100",100
same,"Plant response rating, Kochia",kochia; [9],100
same,"Plant response rating, Kochia",kochia; [10],100
same,"Plant response rating, Ryegrass, Italian",Italian ryegrass; [4],95
same,"Plant response rating, Ryegrass, Italian",Italian ryegrass; [1],95
same,"Plant response rating, Ryegrass, Italian",Italian ryegrass; [5],20
same,"Plant response rating, Ryegrass, Italian",Italian ryegrass; [6],90
same,"Plant response rating, Ryegrass, Italian",Italian ryegrass; [7],100
same,"Plant response rating, Ryegrass, Italian",Italian ryegrass; [2],100
same,"Plant response rating, Ryegrass, Italian",Italian ryegrass; [3],60
same,"Plant response rating, Ryegrass, Italian",Italian ryegrass; [8],30
same,"Plant response rating, Sandbur",southern sandbur; [4],20
same,"Plant response rating, Sandbur",southern sandbur; [1],10
same,"Plant response rating, Sandbur",southern sandbur; [5],0
same,"Plant response rating, Sandbur",southern sandbur; [6],10
same,"Plant response rating, Sandbur",southern sandbur; [7],20
same,"Plant response rating, Sandbur",southern sandbur; [2],60
same,"Plant response rating, Sandbur",southern sandbur; [3],0
same,"Plant response rating, Sandbur",southern sandbur; [8],0
same,"Plant response rating, Nutsedge, Purple",purple nutsedge; [4],70
same,"Plant response rating, Nutsedge, Purple",purple nutsedge; [1],40
same,"Plant response rating, Nutsedge, Purple",purple nutsedge; [5],0
same,"Plant response rating, Nutsedge, Purple",purple nutsedge; [6],30
same,"Plant response rating, Nutsedge, Purple",purple nutsedge; [7],50
same,"Plant response rating, Nutsedge, Purple",purple nutsedge; [2],80
same,"Plant response rating, Nutsedge, Purple",purple nutsedge; [3],20
same,"Plant response rating, Nutsedge, Purple",purple nutsedge; [8],0
same,"Plant response rating, Crabgrass, Large",large crabgrass; [4],100
same,"Plant response rating, Crabgrass, Large",large crabgrass; [1],100
same,"Plant response rating, Crabgrass, Large",large crabgrass; [5],60
same,"Plant response rating, Crabgrass, Large",large crabgrass; [6],80
same,"Plant response rating, Crabgrass, Large",large crabgrass; [7],100
same,"Plant response rating, Crabgrass, Large",large crabgrass; [2],100
same,"Plant response rating, Crabgrass, Large",large crabgrass; [3],80
same,"Plant response rating, Crabgrass, Large",large crabgrass; [8],10
